Where “and” joins values, the source holds several entries; their conditions need not be identical. Identical values can stand only once.
Experiments:
MDA-MB-231 cell motility = experiment: Time-lapse microscope analysis of cell motility; format: cell-based, human; settings: 12 h, control 186
Method: A 12 well cell culture plate was coated with 25 μg/mL fibronectin for 1 h and then seeded with 5×10^4 MDA-MB-231 cells in DMEM containing 10% serum. Twelve hours after seeding, time-lapse microscopy experiments were performed on an Inverted Confocal Microscope (LSM 510 META) equipped with an environmental chamber with phase-contrast optics (images taken every 30 min). Using the object-tracking application of Metamorph software (Molecular Devices), an average of 12 subsequent cell centroid displacements/30 min between two consecutive images were evaluated as cell velocities of migration. In total, cell trajectories were recorded for 24 h. These assays were made in treatments with vehicle (DMSO, 0.05%), DET (2.5, 4 and 10 μM), and DETD-35 (1.25, 2.5, 4 μM) added at the beginning of the time-lapse imaging/video taping.

MDA-MB-231 mammary tumor = experiment: Orthotopic MDA-MB-231 mammary tumor growth in NOD/SCID mice; format: in vivo, mouse
Method: Mammary tumor response to DET analog (DETD-35) was studied using MDA-MB-231 cancer cell bearing NOD/SCID mice (6 weeks old). The mammary fat pad regions of mice were injected with 5×10^6 MDA-MB-231 cells in 100 μL (9.1 mg/mL) matrigel (Basement Membrane Matrix. Phenol Red-free) on day 0. Tumors were allowed to grow in the mice for 7 days, and then the animals were randomly assigned to three groups (n=5 per group): sham, tumor (vehicle) control and 10 mg/kg DETD-35 treatment group. DETD-35 was intraperitoneally […] injected every three days. The test mice were sacrificed by cervical dislocation at day 71, and the tumor were collected and measured for the volume (V) using calipers and calculated by the formula V=(L×W^2)/2, where L is the length and W is the width of tumor.

[1] = test system: phospho-MEK and phospho-ERK in A375-R cells; experiment: Western blot of MAPK signaling, A375-R; format: cell-based, human
Method: Total cellular proteins were prepared from test cells as previously described. Protein concentration was determined by the Bradford method (Bio-Rad). Protein samples were resolved by 5% to 20% gradient SDS-PAGE and then underwent immunoblotting. Primary antibodies against ERK1/2 and GAPDH were from Santa Cruz Biotechnology (Santa Cruz, Calif., USA) and MEK, phospho-ERK1/2 and phospho-MEK were from Cell Signaling Technology (Danvers, Mass., USA). Appropriate horseradish peroxidase-conjugated secondary antibodies were used. Protein bands reacting to specific antibody were visualized by use of enhanced chemiluminescence (Amersham) with exposure to chemiluminescence light film (BioMax; Kodak Co.).

[2] = test system: melanoma cell lines B16-F10, MeWo, A375, A2058, HTB-68; experiment: MTT cell viability assay, all melanoma cell lines; format: cell-based; settings: 24 h, read-out: IC50 values over all types of melanoma cell lines
Outline: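 Cells seeded at 2×10^3 to 1×10^4 cells/well overnight, then exposed to compounds for 24 h to 72 h. Growth measured by MTT colorimetric assay; viability expressed as OD570 treated/OD570 vehicle (0.5% DMSO) ×100.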

[3] = test system: MDA-MB-231 lung metastasis; experiment: Lung metastasis of MDA-MB-231 cells in SCID mice; format: in vivo, mouse
Method: Female SCID mice (5 weeks old, average body weight 19.59±1.26 g) were assigned to 8 groups: PIX group (5 mg/kg paclitaxel), DETD-35-2 group (2 mg/kg DETD-35), DETD-35-10 group (10 mg/kg DETD-35). PTX-5+DETD-35-2 group (5 mg/kg paclitaxel and 2 mg/kg DETD-35 administration alternatively for eleven doses of paclitaxel (PTX) and ten doses of DETD-35 in total), tumor (vehicle) group (5% DMSO), and sham group (5% DMSO). Pre-DETD-35-10 group was the mice administered 10 mg/kg DETD-35 every two days for three doses before the i.v. injection of 1×10^6 MDA-MB-231 tumor cells at day 0. All other drug or compounds were administered i.p. every three days starting from day 1. At the end of experiment (day 71), the test mice were sacrificed by cervical dislocation. The lung, liver, kidney, and spleen organs were removed and recorded weights and calculated for organ index (% of organ weight/body weight). The number of tumor colonies on lungs of test mice was counted.

A375 melanoma cells = experiment: Compound-drug combination assay with PLX4032; format: cell-based, human; settings: DETD-35 0.1 to 1 μM, PLX4032 10 to 100 nM, 72 h
Method: Cell proliferation was measured by MTT assay. Isobologram analysis and Chou-Talalay method was used to determine the effects of compound drug combinations. The interaction of DETDs and PLX4032 or PTX was determined by the combination index (CI), and the CI plot was generated using CompuSyn software. The combined effects of two compounds can be categorized as follows: CI=1 indicates additive interaction, CI<1 indicates synergism, and CI>1 indicates antagonism.
To investigate whether or not DETD-35 show synergism with PLX4032 against A375 melanoma cells, we performed anti-proliferation assay using MTT reagent to obtain IC50 of each compound. […] The synergistic effect was quantified by combination index (CI) analysis as stated above.

[4] = test system: A375-R acquired vemurafenib resistance melanoma cells; experiment: MTT cell viability assay, PLX4032-resistant A375-R; format: cell-based, human; settings: Homo sapiens; 72 h, MTT
Method: A375-R, acquired vemurafenib resistance melanoma cell was generated from A375 parental cell and grown in same conditions as A375 cell.
Normal or cancer cells (2×10^3 to 1×10^4 cells/well) were seeded in 96-well plate for overnight and treated with different compounds for 24 h to 72 h. Cells growth were determined by MTT-based colorimetric assays according to. Viability of the test cells treated with vehicle (0.5% DMSO) only was defined as 100% viable. Survival of cells after treatment with DETDs was calculated using the following formula: viable cell number (%)=OD570 (treated cell culture)/OD570 (vehicle control)×100.
To study the mechanisms underlying how DETD-35 overcomes acquired resistance to BRAF inhibitor, we generated A375 cell line resistant to PLX4032 (designated A375-R). Briefly, A375 melanoma cells were seeded in T75 plate and treated with ascending concentration of PLX4032 (20, 50, 100, 250, 500, 1000, 2000 nM) through approximately 2 months and 20 passages.

C=C(C)C(=O)O[C@H]1CC2=C[C@@H](C/C(C)=C/[C@H]3OC(=O)C(=C)[C@H]13)OC2=O [DET, deoxyelephantopin, reference compound]
migration distance (MDA-MB-231 cell motility; 2.5 μM): 144 μm
migration distance (MDA-MB-231 cell motility; 4 μM): 15 μm
migration distance (MDA-MB-231 cell motility; 10 μM): 9 μm

C=C1C(=O)O[C@H]2CC3=C[C@@H](C/C(C)=C/[C@@H](OC(=O)Cc4cccc5ccccc45)[C@H]12)OC3=O [DETD-35]
effect on mouse body weight (MDA-MB-231 mammary tumor; 10 mg/kg i.p.): without affecting the mouse body weight
fold decrease of tumor volume at day-71 vs tumor control (MDA-MB-231 mammary tumor; 10 mg/kg i.p.): 1.8 folds
tumor growth vs control group (MDA-MB-231 mammary tumor; 10 mg/kg i.p. every three days, day-56): significantly delayed
tumor volume at day-71 (MDA-MB-231 mammary tumor; 10 mg/kg i.p. every three days, tumor control 1268): 712 mm^3
effect on MAP kinases (phospho-MEK, phospho-ERK), A375-R [1]: inhibited reactivation of MAP kinases
IC50 [2]: 1600 to 9900 nM and 2500 to 6000 nM
body weight ([3]; 2 mg/kg group): slightly lower than other groups with no statistical difference
reduction of number of tumor foci in lungs vs tumor control ([3]; post-treatment, 2 mg/kg i.p. every three days, not statistically significant): 9%
reduction of number of tumor foci in lungs vs tumor control ([3]; post-treatment, 10 mg/kg i.p. every three days): 50%
reduction of number of tumor foci in lungs vs tumor control ([3]; pretreatment, 10 mg/kg every two days, three doses before tumor cell injection): 83%
migration distance (MDA-MB-231 cell motility; 1.25 μM): 70 μm
migration distance (MDA-MB-231 cell motility; 2.5 μM): 23 μm
migration distance (MDA-MB-231 cell motility; 4 μM): 3 μm
combination effect with PLX4032 (combination index) (A375 melanoma cells): acted synergistically
IC50 [4]: 800 nM

Source: patent US10238631B2, “Sesquiterpene derivatives and their use in inflammation or cancer treatment” (Academia Sinica, priority 2014, dated 2019)
